Measured values: ChEMBL document CHEMBL5233277, “Oxidative Metabolism as a Modulator of Kratom's Biological Actions” (J Med Chem, 2021)
Calls of active or inactive are those of the source. The calls are words filed in the database; no cut-off is given here.

Assays:
[1] = Drug metabolism in human liver microsomes assessed as mitragynine pseudoindoxyl formation at 1 uM incubated for 60 mins in presence of NADPH by LC-MS/MS analysis; type: ADME, Microsome; settings: 1 h
[2] = Drug metabolism in C57BL/6J mouse plasma assessed as mitragynine pseudoindoxyl formation at 30 mg/kg, po measured after 20 mins by LC-MS/MS analysis; type: ADME, organism-based; settings: in vivo
[3] = Drug metabolism in human S9 fractions assessed as 3-dehydromitragynine formation at 1 uM incubated for 60 mins in presence of NADPH by LC-MS/MS analysis; type: ADME, subcellular, S9 fraction; settings: s9, 1 h
[4] = Drug concentration in C57BL/6J mouse plasma at 30 mg/kg, po measured after 24 hrs by LC-MS/MS analysis; type: ADME, organism-based; settings: in vivo, BLD = below limit of detection
[5] = Drug metabolism in 129Sv6 mouse brain assessed as mitragynine pseudoindoxyl formation at 10 mg/kg, po measured after 15 mins by LC-MS/MS analysis; type: ADME, organism-based; settings: in vivo, 0.25 h
[6] = Drug concentration in C57BL/6J mouse brain at 30 mg/kg, po measured after 20 mins by LC-MS/MS analysis; type: ADME, organism-based; settings: read-out: Ct
Cytochrome P450 3A [7] = target: T1, Cytochrome P450 3A (Mus musculus, UniProt O09158+Q64464+Q64481+Q9JMA7); assay: Metabolic stability in 129Sv6 mouse liver microsomes assessed as CYP3A-mediated decomposition by measuring half life at 1 uM incubated for 60 mins in presence of ketoconazole by LC-MS/MS analysis; type: ADME, Microsome; settings: 1 h
[8] = Drug metabolism in human S9 fraction assessed as compound depletion at 1 uM incubated for 60 mins in presence of NADPH by LC-MS/MS analysis; type: ADME, subcellular; settings: s9, 1 h
[9] = Stability in C57BL/6J mouse liver microsomes assessed as half life at 1 uM incubated for 60 mins by LC-MS/MS analysis; type: ADME, Microsome; settings: 1 h
[10] = Drug metabolism in 129Sv6 mouse liver microsomes assessed as mitragynine pseudoindoxyl formation at 1 uM incubated for 60 mins in presence of ketoconazole by LC-MS/MS analysis; type: ADME, Microsome; settings: 1 h
Mus musculus [11] = assay: Antinociceptive activity in KOR knock out 129Sv6 mouse at 10 mg/kg, po measured after 15 mins; type: functional, organism-based
[12] = Drug metabolism in C57BL/6J mouse liver microsomes assessed as 3-dehydromitragynine formation at 1 uM incubated for 60 mins in presence of ketoconazole by LC-MS/MS analysis; type: ADME, Microsome; settings: 1 h
Mus musculus [13] = assay: Antinociceptive activity in po dosed 129Sv6 mouse model assessed as peak effect measured at 15 mins by radiant heat tail flick assay; type: functional; settings: 129Sv6, 0.25 h
[14] = Drug metabolism in 129Sv6 mouse plasma assessed as 3-dehydromitragynine formation at ED80, po; type: ADME, cell-free
[15] = Drug metabolism in C57BL/6J mouse plasma assessed as mitragynine pseudoindoxyl formation at 30 mg/kg, po measured after 8 hrs by LC-MS/MS analysis; type: ADME, organism-based; settings: in vivo
[16] = Drug metabolism in 129Sv6 mouse liver microsomes assessed as 3-dehydromitragynine formation at 1 uM incubated for 60 mins in presence of ketoconazole by LC-MS/MS analysis; type: ADME, Microsome; settings: 1 h
Cytochrome P450 3A [17] = target: T1, Cytochrome P450 3A; assay: Metabolic stability in C57BL/6J mouse liver microsomes assessed as CYP3A-mediated decomposition by measuring half life at 1 uM incubated for 60 mins in presence of ketoconazole by LC-MS/MS analysis; type: ADME, Microsome; settings: 1 h
[18] = Stability in human liver microsomes assessed as half life at 1 uM incubated for 60 mins by LC-MS/MS analysis; type: ADME, Microsome; settings: 1 h
[19] = Drug metabolism in 129Sv6 mouse liver microsomes assessed as mitragynine pseudoindoxyl formation at 1 uM incubated for 60 mins by LC-MS/MS analysis; type: ADME, Microsome; settings: 1 h
[20] = Drug metabolism in human liver microsomes assessed as mitragynine pseudoindoxyl formation at 1 uM incubated for 60 mins by LC-MS/MS analysis; type: ADME, Microsome; settings: 1 h
Mus musculus [21] = assay: Antinociceptive activity in DOR knock out C57BL/6J mouse at 45 mg/kg, po measured after 20 mins; type: functional, organism-based
[22] = Drug metabolism in human liver microsomes assessed as compound depletion at 1 uM incubated for 60 mins in presence of NADPH by LC-MS/MS analysis; type: ADME, Microsome; settings: 1 h
[23] = Drug metabolism in human liver microsomes assessed as 3-dehydromitragynine formation at 1 uM incubated for 60 mins by LC-MS/MS analysis; type: ADME, Microsome; settings: 1 h
[24] = Drug metabolism in human liver microsomes assessed as 3-dehydromitragynine formation at 1 uM incubated for 60 mins in absence of NADPH by LC-MS/MS analysis; type: ADME, Microsome; settings: 1 h
[25] = Drug metabolism in C57BL/6J mouse liver microsomes assessed as 3-dehydromitragynine formation at 1 uM incubated for 60 mins by LC-MS/MS analysis; type: ADME, Microsome; settings: 1 h
[26] = Drug metabolism in 129Sv6 mouse brain assessed as 3-dehydromitragynine formation at ED80, po; type: ADME, tissue-based
[27] = Drug metabolism in human S9 fraction assessed as mitragynine pseudoindoxyl formation at 1 uM incubated for 60 mins in presence of NADPH by LC-MS/MS analysis; type: ADME, subcellular; settings: s9, 1 h
Cytochrome P450 3A [28] = target: Cytochrome P450 3A (Homo sapiens, UniProt P08684+P20815+Q9HB55+P24462); assay: Metabolic stability in human liver microsomes assessed as CYP3A-mediated decomposition by measuring half life at 1 uM incubated for 60 mins in presence of ketoconazole by LC-MS/MS analysis; type: ADME, Microsome; settings: 1 h
Mus musculus [29] = assay: Antinociceptive activity in po dosed C57BL/6J mouse model assessed as time required for peak effect at ED50 by radiant heat tail flick assay; type: functional
[30] = Drug metabolism in 129Sv6 mouse liver microsomes assessed as 3-dehydromitragynine formation at 1 uM incubated for 60 mins by LC-MS/MS analysis; type: ADME, Microsome; settings: 1 h
[31] = Drug concentration in 129Sv6 mouse brain at 10 mg/kg, sc measured after 15 mins by LC-MS/MS analysis; type: ADME, organism-based; settings: read-out: Ct
[32] = Drug concentration in C57BL/6J mouse brain at 30 mg/kg, po measured after 24 hrs by LC-MS/MS analysis; type: ADME, organism-based; settings: in vivo, BLD = below limit of detection
[33] = Drug metabolism in C57BL/6J mouse liver microsomes assessed as mitragynine pseudoindoxyl formation at 1 uM incubated for 60 mins in presence of ketoconazole by LC-MS/MS analysis; type: ADME, Microsome; settings: 1 h
[34] = Drug metabolism in C57BL/6J mouse brain assessed as mitragynine pseudoindoxyl formation at 30 mg/kg, po measured after 20 mins by LC-MS/MS analysis; type: ADME, organism-based; settings: in vivo
Mus musculus [35] = assay: Antinociceptive activity in sc dosed 129Sv6 mouse model assessed as time required for peak effect at ED50 by radiant heat tail flick assay; type: functional
Mus musculus [36] = assay: Antinociceptive activity in po dosed C57BL/6J mouse model assessed as peak effect measured at 20 mins by radiant heat tail flick assay; type: functional
[37] = Drug metabolism in C57BL/6J mouse brain assessed as mitragynine pseudoindoxyl formation at 30 mg/kg, po measured after 8 hrs by LC-MS/MS analysis; type: ADME, organism-based; settings: in vivo
Mus musculus [38] = assay: Antinociceptive activity in MOR knock out C57BL/6J mouse at 45 mg/kg, po measured after 20 mins; type: functional, organism-based
[39] = Drug concentration in 129Sv6 mouse brain at 10 mg/kg, po measured after 15 mins by LC-MS/MS analysis; type: ADME, organism-based; settings: read-out: Ct

CC[C@@H]1CN2CCc3c([nH]c4cccc(OC)c34)[C@@H]2C[C@@H]1/C(=C\OC)C(=O)OC
Drug metabolism [1]: Metabolite_Detected
Drug metabolism [2]: 20 nM
Drug metabolism [3]: Metabolite_Detected
Cp [4]: Bld
Drug metabolism [5]: 180 nM
concentration at 20 min [6]: 6.63 µM
t1/2 (Cytochrome P450 3A [7]): 24.4 min
Drug metabolism [8]: Metabolite_Detected
t1/2 [9]: 5.9 min
Drug metabolism [10]: Metabolite_Notdetected
Activity (Mus musculus [11]): Active
Drug metabolism [12]: Metabolite_Detected
ED50 (Mus musculus [13]): 4 mg/kg
Drug metabolism [14]: 0.028 µM
Drug metabolism [15]: Metabolite_Notdetected
Drug metabolism [16]: Metabolite_Detected
t1/2 (Cytochrome P450 3A [17]): 35.8 min
t1/2 [18]: 7.5 min
Drug metabolism [19]: Metabolite_Detected
Drug metabolism [20]: Metabolite_Detected
Activity (Mus musculus [21]): Active
Drug metabolism [22]: Metabolite_Detected
Drug metabolism [23]: Metabolite_Detected
Drug metabolism [24]: Metabolite_Detected
Drug metabolism [25]: Metabolite_Detected
Drug metabolism [26]: 0.035 µM
Drug metabolism [27]: Metabolite_Detected
t1/2 (Cytochrome P450 3A [28]): 37.4 min
Time (Mus musculus [29]): 15 min
Drug metabolism [30]: Metabolite_Detected
concentration at 0.25 h [31]: 30.1 µM
Ct [32]: Bld
Drug metabolism [33]: Metabolite_Notdetected
Drug metabolism [34]: 40 nM
Time (Mus musculus [35]): 15 min
ED50 (Mus musculus [36]): 6.25 mg/kg
Drug metabolism [37]: Metabolite_Notdetected
Activity (Mus musculus [38]): inactive
concentration at 0.25 h [39]: 12.2 µM
